These are literature values, as cited in US7960134B1, “Kinase inhibition models and their uses” (ArQule, Inc., priority 2007, dated 2011).

One data set deals with c-Abl (Homo sapiens, UniProt P00519). Conditions: observation cited from WO 2006/086484 A1.
The next data set concerns the target c-Met (Homo sapiens, UniProt P08581). Conditions: observation cited from WO 2006/086484 A1.

Chain of c-Abl (P00519 whole entry): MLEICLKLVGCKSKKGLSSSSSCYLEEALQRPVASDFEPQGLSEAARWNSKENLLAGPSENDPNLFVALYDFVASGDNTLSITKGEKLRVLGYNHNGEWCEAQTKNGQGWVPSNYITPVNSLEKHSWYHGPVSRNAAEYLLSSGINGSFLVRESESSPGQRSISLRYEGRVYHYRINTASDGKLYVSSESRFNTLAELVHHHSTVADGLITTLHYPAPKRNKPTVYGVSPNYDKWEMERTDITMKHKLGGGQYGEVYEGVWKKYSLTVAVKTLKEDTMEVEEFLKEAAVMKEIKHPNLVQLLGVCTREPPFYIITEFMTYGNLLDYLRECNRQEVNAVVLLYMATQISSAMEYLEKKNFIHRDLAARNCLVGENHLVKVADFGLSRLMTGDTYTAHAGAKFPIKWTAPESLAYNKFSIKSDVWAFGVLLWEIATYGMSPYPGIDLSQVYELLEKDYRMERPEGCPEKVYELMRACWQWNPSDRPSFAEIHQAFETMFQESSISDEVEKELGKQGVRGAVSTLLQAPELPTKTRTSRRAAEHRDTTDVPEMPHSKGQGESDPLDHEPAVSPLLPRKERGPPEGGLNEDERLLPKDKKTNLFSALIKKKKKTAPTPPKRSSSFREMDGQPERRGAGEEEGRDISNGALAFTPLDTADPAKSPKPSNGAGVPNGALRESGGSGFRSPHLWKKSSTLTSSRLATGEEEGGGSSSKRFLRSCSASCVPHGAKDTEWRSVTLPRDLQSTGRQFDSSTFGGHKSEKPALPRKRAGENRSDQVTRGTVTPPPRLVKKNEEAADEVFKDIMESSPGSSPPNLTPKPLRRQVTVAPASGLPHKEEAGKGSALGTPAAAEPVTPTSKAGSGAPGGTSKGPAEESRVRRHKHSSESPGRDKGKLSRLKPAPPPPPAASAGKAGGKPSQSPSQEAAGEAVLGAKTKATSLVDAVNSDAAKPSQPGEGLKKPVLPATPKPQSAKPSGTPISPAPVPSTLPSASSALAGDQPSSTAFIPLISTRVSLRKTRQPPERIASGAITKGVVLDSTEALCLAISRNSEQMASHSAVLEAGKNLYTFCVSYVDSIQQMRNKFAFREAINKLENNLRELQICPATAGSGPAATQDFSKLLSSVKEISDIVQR
Chain of c-Met (P08581 25-1390): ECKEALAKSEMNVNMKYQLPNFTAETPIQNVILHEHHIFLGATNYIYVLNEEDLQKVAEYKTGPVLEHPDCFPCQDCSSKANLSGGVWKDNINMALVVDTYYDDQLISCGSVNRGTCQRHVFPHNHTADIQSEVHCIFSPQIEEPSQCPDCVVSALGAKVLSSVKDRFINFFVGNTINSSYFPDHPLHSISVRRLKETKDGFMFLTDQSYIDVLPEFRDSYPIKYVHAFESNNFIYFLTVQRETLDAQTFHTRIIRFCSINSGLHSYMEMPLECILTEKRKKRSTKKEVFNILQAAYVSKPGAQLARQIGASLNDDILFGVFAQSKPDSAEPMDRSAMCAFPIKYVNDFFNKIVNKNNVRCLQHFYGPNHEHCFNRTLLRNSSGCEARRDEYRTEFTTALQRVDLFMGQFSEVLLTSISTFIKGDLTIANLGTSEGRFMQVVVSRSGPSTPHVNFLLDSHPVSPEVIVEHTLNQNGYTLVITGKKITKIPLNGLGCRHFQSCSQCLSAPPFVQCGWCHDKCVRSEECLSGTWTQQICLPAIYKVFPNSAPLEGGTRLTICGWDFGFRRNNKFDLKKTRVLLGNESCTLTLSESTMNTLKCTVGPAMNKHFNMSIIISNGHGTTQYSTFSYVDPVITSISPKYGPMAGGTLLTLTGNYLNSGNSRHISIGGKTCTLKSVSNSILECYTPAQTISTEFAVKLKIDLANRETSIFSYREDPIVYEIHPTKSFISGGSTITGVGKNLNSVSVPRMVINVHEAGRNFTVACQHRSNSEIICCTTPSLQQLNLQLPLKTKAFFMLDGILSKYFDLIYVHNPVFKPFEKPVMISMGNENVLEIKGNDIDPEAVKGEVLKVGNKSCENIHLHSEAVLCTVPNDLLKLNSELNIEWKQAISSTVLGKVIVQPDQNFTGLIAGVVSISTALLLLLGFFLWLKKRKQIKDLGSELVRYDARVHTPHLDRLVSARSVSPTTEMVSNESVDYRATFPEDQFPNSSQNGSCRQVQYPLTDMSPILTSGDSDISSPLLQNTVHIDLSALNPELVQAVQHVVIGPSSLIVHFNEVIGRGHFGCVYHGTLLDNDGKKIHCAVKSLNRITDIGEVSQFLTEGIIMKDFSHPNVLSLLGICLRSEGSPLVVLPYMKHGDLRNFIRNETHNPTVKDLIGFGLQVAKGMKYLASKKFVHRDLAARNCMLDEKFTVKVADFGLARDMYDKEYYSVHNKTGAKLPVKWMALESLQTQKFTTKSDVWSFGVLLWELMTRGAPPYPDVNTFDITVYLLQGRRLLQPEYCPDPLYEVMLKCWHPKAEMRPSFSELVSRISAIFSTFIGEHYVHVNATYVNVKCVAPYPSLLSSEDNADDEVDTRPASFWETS

Take `O=C1NC(=O)[C@@H](c2cn3c4c(cccc24)CCC3)[C@@H]1c1c[nH]c2ccccc12` (single isomer, unassigned) [the selective c-Met inhibitor, (−)-trans-3-(5,6-dihydro-4H-pyrrolo[3,2,1-ij]quinolin-1-yl)-4(1H-indol-3-yl)pyrrolidine-2,5-dione]: the “inhibition of the activity of c-Abl” value on c-Abl was “does not inhibit the activity of c-Abl effectively”. The “inhibition of the activity of c-Met” value at c-Met is “inhibits the activity of c-Met effectively”.
